Source: article PMC11189516, “Structure-guided conversion from an anaplastic lymphoma kinase inhibitor into Plasmodium lysyl-tRNA synthetase selective inhibitors” (Communications Biology, 2024)
≈ marks a conversion by molar mass, not a printed value. Where “and” joins values, the source holds several entries; their conditions need not be identical. Equal entries are not always repeated. Where two headings read alike, the source gives them in different places.

Key:
[1] = molecular target: T1, PfLysRS (Plasmodium falciparum, UniProt Q8IDJ8); test: ATP hydrolysis assay (Kinase-Glo) on PfLysRS; format: biochemical; conditions: for IC50: read-out: IC50 against PfLysRS
T1 construct: PfLysRS (77–583) was constructed in the vector pET20b, with a C-terminal 6×His tag; 6xHis (C); made in house; host or cells: E. coli BL21 (DE3)
Procedure: (§1) The ATP hydrolysis assays were based on Kinase-Glo luminescent Kit (Promega). The experiment was carried out in Corning 384-well white flat bottom microplates. The buffer in the reaction contains 25 mM Hepes pH 7.4, 140 mM NaCl, 40 mM MgCl2, 30 mM KCl, 1 mM TCEP, 0.1 mg·mL^−1 BSA, and 0.004% Tween-20. The compounds were diluted to different concentrations with a 5-fold gradient.
(§2) For LysRS assays, DMSO was added into negative control wells and L-lysine was removed in positive control wells. 100 nM LysRS in 2.5 μL Hepes buffer was mixed with compounds and incubated for 10 min. Then 5 μL substrate mixture (2 μM ATP, 10 μM L-lysine and 31 nM pyrophosphatase) was added to start the reaction at 37 °C and incubated for 6 h.
(§3) When the reaction reaches the planned time, 10 μL diluted Kinase-Glo reagent (1/50 diluted with a buffer containing 50 mM Tris pH 7.5 and 5% glycerol) was added and incubated for 15 min. Luminescence was measured on the Magellan plate reader (Tecan) and nonlinear regression was performed with Prism (GraphPad).

[2] = molecular target: T1, PfLysRS; conditions: cited from earlier work
[3] = system: erythrocytic-stage P. falciparum 3D7 parasites; parameters: method as in PMID 33053158; conditions: read-out: EC50, growth of erythrocytic-stage P. falciparum 3D7; cited from earlier work
[4] = molecular target: T2, HsLysRS (Homo sapiens, UniProt Q15046); test: ATP hydrolysis assay (Kinase-Glo) on HsLysRS; format: biochemical
T2 construct: HsLysRS (70–581) was constructed in the vector pET20b with a C-terminal 6×His tag; 6xHis (C); made in house; host or cells: E. coli (pET20b; 'purified similarly' to PfLysRS, which was expressed in BL21 (DE3))
Procedure: as §1, §2, §3

[5] = molecular target: T1, PfLysRS; test: Thermal shift assay; format: binding
Procedure: PfLysRS protein was prepared at 10 μM concentration in a buffer containing 20 mM Tris pH 8.0, 200 mM NaCl, 500 μM L-lysine, and 200 μM Compound. Aliquots (18 µL) were added to a 96-well PCR plate and incubated at ambient temperature for 10 min. SYPRO Orange dye (Sigma) was diluted in the assay buffer containing 20 mM Tris pH 8.0 and 200 mM NaCl to a 40× concentration, and 2 µL of the 40× dye solution was added to the PCR plate to bring the final assay volume to 20 µL. After complete mixing, the final solutions were heated from 25 to 90 °C at a rate of 0.015 °C per sec, and fluorescence signals were monitored by QuantStudio 3 (Applied Biosystems by Thermo Fisher Scientific).

[6] = molecular target: T3, ALK (Homo sapiens, UniProt Q9UM73); test: ATP hydrolysis assay (Kinase-Glo) on ALK; format: biochemical; conditions: read-out: IC50 against ALK
T3 construct: The plasmid pCDNA3.1_8×His-tev-ALK (kinase domain, 1068–1410) was constructed; 8xHis (N); TEV site (N); made in house; host or cells: Expi293 cells (transient transfection)
Procedure: as §1
For ALK assays, DMSO was added into negative control wells. 100 nM ALK in 2.5 μL Hepes buffer was mixed with compounds and incubated for 10 min. Then 5 μL substrate (2 μM ATP) was added to start the reaction at 37 °C and incubated for 6 h.
as §3

[7] = molecular target: T1, PfLysRS; test: Surface plasmon resonance (SPR) assay; format: binding; conditions: immobilized PfLysRS
Procedure: PfLysRS was chemically immobilized on a Biacore CM5 sensorchip (immobilization level ~20000 resonance unit/RU) at pH 5.0 according to the immobilization kit (GE Healthcare). PfLysRS (1.7 nM) was captured for 90 s at a flow of 30 µL·min^−1. Affnity between PfLysRS and compounds was measured by SPR on a Biacore 8 K (GE Healthcare) at 25 °C with a running buffer (0.02 M phosphate buffer pH 7.4, 2.7 mM KCl, 0.137 M NaCl, 0.05% Tween 20, with 1 mM L-lysine). The association time was 90 s, the dissociation time was 120 s, and the flowrate was 30 µL·min^−1. Kinetic evaluation of the interaction between LysRS and compounds was performed by global fitting of the data to a 1:1 interaction model using Biacore Evaluation Software 3.1 (GE Healthcare).

[8] = Solubility noted in the cytotoxicity assay; format: physicochemical; conditions: highest concentration limited to 100 μM in cell medium
Procedure: Cell viability was analyzed by Cell Counting Kit-8 (CCK8, ApexBio) according to the manufacturer’s protocols. Cells were seeded and cultured at a density of 2.5 × 10^3 cells per well in 100 μL medium in 96-well microplates (Corning). Then, the cells were treated with different concentrations of compound (0, 1 μM, 3 μM, 10 μM, 100 μM, 300 μM). […] After treatment for 72 h, 10 μL of CCK-8 reagent was added to each well and then cultured for 4 h. All experiments were performed in pentaplicate. The absorbance was analyzed at 450 nm using a microplate reader (Tecan) using medium without cells as blanks. Data was processed using GraphPad Prism 9.

[9] = molecular target: P. falciparum ProRS; conditions: sentence of the first manuscript quoted in the peer review file; read-out: dissociation constant (KD); cited from earlier work
[10] = system: Staphylococcus aureus; parameters: method as in PMID 6258580, PMID 659331, PMID 3923922; conditions: cited from earlier work
[11] = +Lysine, sheet Figure 6B, in °C (unit assumed)

T1 sequence (Q8IDJ8 entry or part of it): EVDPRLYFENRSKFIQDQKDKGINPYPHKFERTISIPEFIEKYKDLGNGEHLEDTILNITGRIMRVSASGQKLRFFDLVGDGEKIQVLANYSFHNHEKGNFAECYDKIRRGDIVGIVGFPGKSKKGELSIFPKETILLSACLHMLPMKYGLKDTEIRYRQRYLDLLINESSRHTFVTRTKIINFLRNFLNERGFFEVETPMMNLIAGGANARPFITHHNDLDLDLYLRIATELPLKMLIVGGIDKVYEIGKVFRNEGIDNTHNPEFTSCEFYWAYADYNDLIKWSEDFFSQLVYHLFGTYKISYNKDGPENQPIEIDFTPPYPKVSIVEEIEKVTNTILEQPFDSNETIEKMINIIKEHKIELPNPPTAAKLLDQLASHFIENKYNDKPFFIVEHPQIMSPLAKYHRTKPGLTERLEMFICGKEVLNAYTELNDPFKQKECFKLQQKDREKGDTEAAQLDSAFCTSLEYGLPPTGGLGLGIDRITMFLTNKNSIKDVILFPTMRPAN
T2 sequence (Q15046 70-581): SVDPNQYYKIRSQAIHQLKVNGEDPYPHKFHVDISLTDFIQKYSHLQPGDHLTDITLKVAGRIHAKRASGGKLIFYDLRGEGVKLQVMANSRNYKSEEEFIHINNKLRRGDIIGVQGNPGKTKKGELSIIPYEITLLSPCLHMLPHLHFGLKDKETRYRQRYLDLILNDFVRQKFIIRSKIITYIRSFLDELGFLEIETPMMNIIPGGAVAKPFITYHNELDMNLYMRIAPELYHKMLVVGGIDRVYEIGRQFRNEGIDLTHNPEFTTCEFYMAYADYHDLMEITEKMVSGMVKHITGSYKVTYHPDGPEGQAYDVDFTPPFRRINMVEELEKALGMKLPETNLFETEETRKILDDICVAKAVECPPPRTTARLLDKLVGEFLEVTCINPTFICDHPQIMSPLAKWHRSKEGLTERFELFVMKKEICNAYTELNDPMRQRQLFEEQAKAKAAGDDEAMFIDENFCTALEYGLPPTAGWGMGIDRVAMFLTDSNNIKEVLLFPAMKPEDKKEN
T3 sequence (Q9UM73 1068-1410): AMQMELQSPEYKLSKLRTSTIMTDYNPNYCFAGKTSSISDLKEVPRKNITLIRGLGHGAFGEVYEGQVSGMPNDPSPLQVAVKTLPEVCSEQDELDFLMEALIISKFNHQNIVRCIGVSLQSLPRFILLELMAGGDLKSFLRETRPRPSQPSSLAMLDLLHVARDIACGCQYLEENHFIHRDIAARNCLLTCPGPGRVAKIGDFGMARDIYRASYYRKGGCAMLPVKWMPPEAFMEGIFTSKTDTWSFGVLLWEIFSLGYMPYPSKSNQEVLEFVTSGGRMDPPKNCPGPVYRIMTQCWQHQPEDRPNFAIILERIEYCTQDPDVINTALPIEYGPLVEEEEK

For `COc1cc(N2CCC(N3CCN(C)CC3)CC2)ccc1Nc1ncnc(Nc2ccccc2S(=O)(=O)C(C)C)n1` [ASP3026, N-{2-Methoxy-4-[4-(4-methylpiperazin-1-yl)piperidin-1-yl]phenyl}-N’-[2-(propane-2-sulfonyl)phenyl]-1,3,5-triazine-2,4-diamine], the IC50 [1] is given as 967 ± 170 nM, the IC50 ([2]; another kit, different buffer system, ref nucleic acid research paper, read-out: previously reported IC50 against PfLysRS) is given as 657 ± 195 nM and the “inhibitory effect on human ALK stronger than on PfLysRS” value ([2]; ref original Nucleic Acid Research paper) is given as “about 200 times”. The EC50 [3] was 5610 nM.

With `COc1ccc(OC)c(Nc2ncnc(Nc3ccccc3S(=O)(=O)CCCNC(=O)[C@@H](N)CCCCN)n2)c1` [Compound 36K3] the “HillSlope (best-fit value)” value ([1]; PfLysRS) was 1.065, the “LogIC50 (best-fit value)” value ([1]; PfLysRS, log of nM) was 1.772 and the IC50 [1] was 59.2 nM. For the same compound, the “apparent selectivity index for HsLysRS” value ([4]; PfLysRS vs HsLysRS) was 200, the IC50 ([4]; read-out: IC50 against HsLysRS) was 12000 nM and the “△Tm of PfLysRS” value ([5]; +Lysine, sheet Figure 6B) was 12.798. The “Tm of PfLysRS, Average” value [5, 11] was 57.818, the “Tm of PfLysRS, single repeat” value [5, 11] was 57.710 and 57.895 and 57.833 and the ΔTm at 200 µM ([5]; in the presence of L-lysine) was 12.8 °C. For the same compound, the IC50 [6] was greater than 74400 nM, the koff [7] was 0.0113 s⁻¹ and the kon [7] was 911000 M/s. For the same compound, the Kd ([7]; 1 mM L-lysine in running buffer, read-out: dissociation constant (KD)) was 12.4 nM and the “solubility” value [8] was “poor solubility”.

For `O=C(CC1NCCCC1O)Cn1cnc2cc(Br)c(Cl)cc2c1=O` (centres unmarked) [Halofuginone], the Kd [9] is given as 19 nM.

For `C/C(=C\C(=O)OCCCCCCCCC(=O)O)C[C@@H]1OC[C@H](C[C@@H]2O[C@H]2[C@@H](C)[C@H](C)O)[C@@H](O)[C@H]1O` [Mupirocin], the MIC [10] is given as 0.05 µg/mL (≈ 0.0999 µM).
